Experiments:
[1] = biological target: T1, Dual specificity protein kinase TTK (Homo sapiens, UniProt P33981); assay: Binding affinity to wild-type human partial length TTK (N505 to V798 residues) expressed in bacterial expression system by active site-directed competition binding based Kinomescan method
T1 sequence (P33981 whole entry): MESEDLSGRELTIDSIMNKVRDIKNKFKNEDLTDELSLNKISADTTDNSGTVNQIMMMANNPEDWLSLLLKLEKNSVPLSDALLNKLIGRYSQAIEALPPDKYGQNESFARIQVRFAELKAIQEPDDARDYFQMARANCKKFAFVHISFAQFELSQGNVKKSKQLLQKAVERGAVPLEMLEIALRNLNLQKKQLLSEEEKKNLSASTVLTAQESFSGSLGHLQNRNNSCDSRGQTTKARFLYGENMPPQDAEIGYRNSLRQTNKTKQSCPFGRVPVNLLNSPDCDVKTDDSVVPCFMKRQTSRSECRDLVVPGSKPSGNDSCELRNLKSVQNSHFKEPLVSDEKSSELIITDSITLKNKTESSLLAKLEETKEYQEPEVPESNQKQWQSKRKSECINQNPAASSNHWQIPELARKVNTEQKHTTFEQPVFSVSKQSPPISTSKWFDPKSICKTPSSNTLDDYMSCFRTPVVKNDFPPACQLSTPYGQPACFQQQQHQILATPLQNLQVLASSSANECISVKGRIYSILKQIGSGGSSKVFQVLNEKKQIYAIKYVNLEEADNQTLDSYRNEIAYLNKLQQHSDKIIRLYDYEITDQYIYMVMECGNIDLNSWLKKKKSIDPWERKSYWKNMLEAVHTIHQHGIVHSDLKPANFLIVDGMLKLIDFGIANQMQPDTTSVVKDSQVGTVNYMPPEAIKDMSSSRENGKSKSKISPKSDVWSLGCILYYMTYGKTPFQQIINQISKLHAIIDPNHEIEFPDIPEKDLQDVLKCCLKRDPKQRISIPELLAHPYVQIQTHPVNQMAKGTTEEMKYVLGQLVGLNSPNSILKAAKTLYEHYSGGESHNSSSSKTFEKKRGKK

[2] = biological target: T1, Dual specificity protein kinase TTK; assay: Inhibition of recombinant full-length human TTK using MBP as substrate incubated for 40 mins in presence of [gamma33P]ATP by scintillation counting based radiometry assay relative to control
HCT-116 = assay: Antitumor activity at human HCT-116 cells xenografted in CB17-SCID mouse assessed as tumor growth inhibition at 20 mg/kg, ip administered once weekly for 16 days relative to control; format: functional; conditions: HCT-116, ip, 384 h, time 16 day, read-out: TGI
[3] = Half life in Sprague-Dawley rat at 5 mg/kg, iv; format: ADME, organism-based; conditions: in vivo
[4] = AUC (0 to infinity) in Sprague-Dawley rat at 25 mg/kg, po; format: ADME, organism-based; design: time infinity, route oral, dose 25 mg/kg; conditions: in vivo
[5] = Oral bioavailability in Sprague-Dawley rat at 25 mg/kg; format: ADME, organism-based; conditions: in vivo
[6] = Cmax in Sprague-Dawley rat at 5 mg/kg, iv; format: ADME, organism-based; design: route intravenous, dose 5 mg/kg; conditions: in vivo
[7] = Half life in Sprague-Dawley rat at 25 mg/kg, po; format: ADME, organism-based; conditions: in vivo
[8] = Cmax in Sprague-Dawley rat at 25 mg/kg, po; format: ADME, organism-based; design: route oral, dose 25 mg/kg; conditions: in vivo
[9] = Clearance in Sprague-Dawley rat at 5 mg/kg, iv; format: ADME, organism-based; conditions: in vivo
[10] = AUC (0 to infinity) in Sprague-Dawley rat at 5 mg/kg, iv; format: ADME, organism-based; design: route intravenous, time infinity, dose 5 mg/kg; conditions: in vivo

| Structure (SMILES) | Kd [1] [nM] | other results |
| --- | --- | --- |
| CCC(=O)N[C@H]1CC[C@@H](n2c(=O)cc(-c3ccccc3)c3cnc(Nc4ccc(N5CCN(C)CC5)cc4OC)nc32)CC1 | 825 | – |
| CCC(=O)N[C@H]1CC[C@H](n2c(=O)cc(C)c3cnc(Nc4ccc(N5CCN(C)CC5)cc4OC)nc32)CC1 | 2.8 | – |
| CCC(=O)N[C@H]1CC[C@@H](n2c(=O)cc(C)c3cnc(Nc4ccc(N5CCN(C)CC5)c(C)c4)nc32)CC1 | 3.9 | – |
| CCC(=O)N1CC(n2c(=O)cc(C)c3cnc(Nc4ccc(N5CCN(C)CC5)cc4OC)nc32)C1 | > 1000 | – |
| CCC(=O)N1CCC[C@H](n2c(=O)cc(C)c3cnc(Nc4ccc(N5CCN(C)CC5)cc4OC)nc32)C1 | 200 | – |
| CCC(=O)N1CCC(n2c(=O)cc(C)c3cnc(Nc4ccc(N5CCN(C)CC5)cc4OC)nc32)CC1 | 9.3 | – |
| CCC(=O)N1CCC[C@@H](n2c(=O)cc(C)c3cnc(Nc4ccc(N5CCN(C)CC5)cc4OC)nc32)C1 | 250 | – |
| CCC(=O)N1CC[C@H](n2c(=O)cc(C)c3cnc(Nc4ccc(N5CCN(C)CC5)cc4OC)nc32)C1 | 145 | – |
| COc1cc(N2CCN(C)CC2)ccc1Nc1ncc2c(C)cc(=O)n([C@H]3CC[C@@H](NC(=O)c4cccc5ccccc45)CC3)c2n1 | 1.1 | – |
| COc1cc(N2CCN(C)CC2)ccc1Nc1ncc2c(C)cc(=O)n([C@H]3CC[C@@H](NCC4CC4)CC3)c2n1 | 6.1 | – |
| CCC(=O)N1CC[C@@H](n2c(=O)cc(C)c3cnc(Nc4ccc(N5CCN(C)CC5)cc4OC)nc32)C1 | 310 | – |
| COc1cc(N2CCN(C)CC2)ccc1Nc1ncc2c(C)cc(=O)n([C@H]3CC[C@@H](NC(C)=O)CC3)c2n1 | 0.72 | – |
| CC(=O)O[C@H]1C(=O)[C@@]2(C)[C@H]([C@H](OC(=O)c3ccccc3)[C@]3(O)C[C@H](OC(=O)[C@H](O)[C@@H](NC(=O)c4ccccc4)c4ccccc4)C(C)=C1C3(C)C)[C@]1(OC(C)=O)CO[C@@H]1C[C@@H]2O [PACLITAXEL] | – | inhibition in vivo at 20 mg/kg (HCT-116): 52% |
| CCC(=O)N[C@H]1CC[C@@H](n2c(=O)cc(CC)c3cnc(Nc4ccc(N5CCN(C)CC5)cc4OC)nc32)CC1 | 1.5 | – |
| CCC(=O)N[C@H]1CC[C@@H](n2c(=O)cc(C)c3cnc(Nc4ccc(N5CCN(C)CC5)c(OC)c4)nc32)CC1 | 4.2 | – |
| C=CC(=O)N1CC[C@H](n2c(=O)cc(C)c3cnc(Nc4ccc(N5CCN(C)CC5)cc4OC)nc32)C1 | 190 | – |
| CCC(=O)N[C@H]1CC[C@@H](n2c(=O)cc(C3CC3)c3cnc(Nc4ccc(N5CCN(C)CC5)cc4OC)nc32)CC1 | 7.9 | IC50 [2]: 50 nM |
| CCC(=O)N[C@H]1CC[C@@H](n2c(=O)cc(C)c3cnc(Nc4ccc(N5CCN(C)CC5)cc4OC)nc32)CC1 | 0.71 | – |

Further compounds by falling Kd [1], results first:

| Kd [1] [nM] | Structure (SMILES) | other results |
| --- | --- | --- |
| 0.63 | CCC(=O)N[C@H]1CC[C@@H](n2c(=O)cc(C)c3cnc(Nc4ccc(N5CCN(C)CC5)cc4C)nc32)CC1 | – |
| 0.56 | COc1cc(N2CCN(C)CC2)ccc1Nc1ncc2c(C)cc(=O)n([C@H]3CC[C@@H](NC(=O)C45CC6CC(CC(C6)C4)C5)CC3)c2n1 | – |
| 0.5 | COc1cc(N2CCN(C)CC2)ccc1Nc1ncc2c(C)cc(=O)n([C@H]3CC[C@@H](NC(=O)C(C)C)CC3)c2n1 | – |
| 0.41 | COc1cc(N2CCN(C)CC2)ccc1Nc1ncc2c(C)cc(=O)n([C@H]3CC[C@@H](NC(=O)C4CC4)CC3)c2n1 | – |
| 0.41 | CCC(=O)N[C@H]1CC[C@@H](n2c(=O)ccc3cnc(Nc4ccc(N5CCN(C)CC5)cc4OC)nc32)CC1 | – |
| 0.3 | COc1cc(N2CCN(C)CC2)ccc1Nc1ncc2c(C)cc(=O)n([C@H]3CC[C@@H](NC(=O)c4ccccc4)CC3)c2n1 | – |
| 0.29 | CCC(=O)N[C@H]1CC[C@@H](n2c(=O)c(C)cc3cnc(Nc4ccc(N5CCN(C)CC5)cc4OC)nc32)CC1 | – |
| 0.2 | COc1cc(N2CCN(C)CC2)ccc1Nc1ncc2c(C)cc(=O)n([C@H]3CC[C@@H](NC(=O)C(C)(C)C)CC3)c2n1 | – |
| 0.17 | COc1cc(N2CCN(C)CC2)ccc1Nc1ncc2cc(C)c(=O)n([C@H]3CC[C@@H](NC(=O)C4CCCC4)CC3)c2n1 | IC50 [2]: 11 nM |
| 0.17 | COc1cc(N2CCN(C)CC2)ccc1Nc1ncc2cc(C)c(=O)n([C@H]3CC[C@@H](NC(=O)C4CCCCC4)CC3)c2n1 | half-life [3]: 6.2 h; AUC(0-inf) [4]: 33300 ng·h/mL; bioavailability [5]: 39.6%; Cmax [6]: 4740 ng/mL; IC50 [2]: 20 nM; half-life [7]: 7.62 h; Cmax [8]: 2300 ng/mL; clearance [9]: 5.61 mL/min/kg; AUC(0-inf) [10]: 15500 ng·h/mL |
| 0.12 | COc1cc(N2CCN(C)CC2)ccc1Nc1ncc2c(C)cc(=O)n([C@H]3CC[C@@H](NC(=O)C4CCCC4)CC3)c2n1 | IC50 [2]: 19 nM |

From ChEMBL document CHEMBL4818999, “Pyrido[2, 3-d]pyrimidin-7(8H)-ones as new selective orally bioavailable Threonine Tyrosine Kinase (TTK) inhibitors” (Eur J Med Chem, 2021)
